Measurements taken from US12091425B2 (AMGEN INC., priority 2016, dated 2024).

Assays:
[1] = target: T1, Mcl-1/Bim interaction, recombinant human Mcl-1 (171-327) (Homo sapiens, UniProt Q07820); experiment: Cell free Mcl-1: Bim Affinity Assay (Mcl-1 HTRF); format: binding
T1 construct: made in house
How it was run: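 TR-FRET competition assay with biotinylated human Bim peptide (residues 51-76); reaction plates incubated overnight before reading. IC50 values came from duplicate data fitted to a four-parameter sigmoidal competition curve.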

[2] = system: OPM-2 human multiple myeloma cell line; experiment: Cell Viability Assay (OPM-2 10 FBS); format: cell-based; conditions: OPM-2 cells, CellTiter-Glo
How it was run: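 ATP-based luminescence (CellTiter-Glo) measured after a 16 h compound treatment of OPM-2 cells seeded at 3000 cells/well in 10% FBS medium. IC50 values derived by 4-parameter logistic fitting of serial dilutions.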

[3] = cell free Mcl-1:Bim TR-FRET, recombinant human Mcl-1 (171-327)
[4] = Homo sapiens, OPM-2, 16 h, 16 h
[5] = TR-FRET, 0.1 nM Mcl-1 (171-327), 0.05 nM biotin-Bim (51-76)
[6] = Homo sapiens, OPM-2, 16 h, 16 h incubation

T1 sequence (Q07820 171-327): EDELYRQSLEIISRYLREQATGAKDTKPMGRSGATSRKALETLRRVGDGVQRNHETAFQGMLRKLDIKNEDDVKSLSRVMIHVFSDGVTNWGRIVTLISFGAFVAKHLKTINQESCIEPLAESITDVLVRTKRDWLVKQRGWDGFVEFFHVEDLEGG

IC50 [1, 3]	IC50 [2, 4]	IC50 [1, 5]	Compound	IC50 ([2]; 16 h)	further results
13.8 nM	912 nM		COc1ccc(CNCCO[C@H]2/C=C/C[C@H](C)[C@@H](C)S(=O)(=O)NC(=O)c3ccc4c(c3)N(C[C@@H]3CC[C@H]32)C[C@@]2(CCCc3cc(Cl)ccc32)CO4)c(OC)c1 [Example 777, (1S,3′R,6′R,7′S,8′E,11′S,12′R)-6-chloro-7′-(2-((2,4-dimethoxybenzyl)amino)ethoxy)-11′,12′-dimethyl-3,4-dihydro-2H,15′H-spiro[naphthalene-1,22′-[20]oxa[13]thia[1,14]diazatetracyclo[14.7.2.0^3,6.0^19,24]pentacosa[8,16,18,24]tetraen]-15′-one-13′, 13′-dioxide]		
0.316 nM			COC[C@H](O)C[C@@H]1CC/C=C/[C@H](OC)[C@@H]2CC[C@H]2CN2C[C@@]3(CCCc4cc(Cl)ccc43)COc3ccc(cc32)C(=O)NS1(=O)=O (single isomer, unassigned) [Example 651]	229 nM	
		0.476 nM	CC[C@@H]1CC/C=C/[C@H](OCc2ncco2)[C@@H]2CC[C@H]2CN2C[C@@]3(CCCc4cc(Cl)ccc43)COc3ccc(cc32)C(=O)NS1(=O)=O [Example 986, (1S,3′R,6′R,7′S,8′E,12′R)-6-chloro-12′-ethyl-7′-(1,3-oxazol-2-ylmethoxy)-3,4-dihydro-2H,15′H-spiro[naphthalene-1,22′-[20]oxa[13]thia[1,14]diazatetracyclo[14.7.2.0^3,6.0^19,24]pentacosa [8,16,18,24]tetraen]-15′-one 13′,13′-dioxide]		IC50 [2, 6]: 270 nM
0.188 nM	141 nM		COCC1CC(C)C=CC(O)C2CCC2CN2CC3(CCCc4cc(Cl)ccc43)COc3ccc(cc32)C(=O)NS1(=O)=O (single isomer, unassigned) [Example 471]		
	1400 nM	0.138 nM	C[C@@H]1[C@@H](C)C/C=C/[C@H](OCC(=O)N2CC[C@@H](O)C2)[C@@H]2CC[C@H]2CN2C[C@@]3(CCCc4cc(Cl)ccc43)COc3ccc(cc32)C(=O)NS1(=O)=O [Example 311, (1S,3′R,6′R,7′S,8′E,11′S,12′R)-6-chloro-7′-(2-((3R)-3-hydroxy-1-pyrrolidinyl)-2-oxoethoxy)-11′,12′-dimethyl-3,4-dihydro-2H,15′H-spiro[naphthalene-1,22′-[20]oxa[13]thia[1,14]diazatetracyclo[14.7.2.0^3,6.0^19,24]pentacosa [8,16,18,24]tetraen]-15′-one 13′,13′-dioxide]		
	870 nM	0.393 nM	C[C@@H]1[C@@H](C)C/C=C/[C@H](OCCS(N)(=O)=O)[C@@H]2CC[C@H]2CN2C[C@@]3(CCCc4cc(Cl)ccc43)COc3ccc(cc32)C(=O)NS1(=O)=O [Example 15, 2-(((1S,3′R,6′R,7′S,8′E,11′S,12′R)-6-chloro-11′,12′-dimethyl-13′,13′-dioxido-15′-oxo-3,4-dihydro-2H-spiro[naphthalene-1,22′-[20]oxa[13]thia[1,14]diazatetracyclo[14.7.2.0^3,6.0^19,24]pentacosa[8,16,18,24]tetraen]-7′-yl)oxy)ethanesulfonamide]		
		6.15 nM	C[C@@H]1[C@@H](C)C[C@H](CC#N)/C=C/[C@@H]2CC[C@H]2CN2C[C@@]3(CCCc4cc(Cl)ccc43)COc3ccc(cc32)C(=O)NS1(=O)=O [Example 1075, ((1S,3′R,6′S,7′E,9′R,11′S,12′R)-6-chloro-11′,12′-dimethyl-13′,13′-dioxido-15′-oxo-3,4-dihydro-2H-spiro[naphthalene-1,22′-[20]oxa[13]thia[1,14]diazatetracyclo[14.7.2.0^3,6.0^19,24]pentacosa [7,16,18,24]tetraen]-9′-yl)acetonitrile]		IC50 [2, 6]: 2150 nM
0.427 nM	156 nM		C[C@@H]1[C@@H](C)C/C=C/[C@H](OCCN2CC(F)C2)[C@@H]2CC[C@H]2CN2C[C@@]3(CCCc4cc(Cl)ccc43)COc3ccc(cc32)C(=O)NS1(=O)=O [Example 532, (1S,3′R,6′R,7′S,8′E,11′S,12′R)-6-chloro-7′-(2-(3-fluoro-1-azetidinyl)ethoxy)-11′,12′-dimethyl-3,4-dihydro-2H,15′H-spiro[naphthalene-1,22′-[20]oxa[13]thia[1,14]diazatetracyclo[14.7.2.0^3,6.0^19,24]pentacosa [8,16,18,24]tetraen]-15′-one 13′,13′-dioxide]		
	6490 nM	7.27 nM	O=C1NS(=O)(=O)N2CCOC[C@H]2C/C=C/[C@H](O)[C@@H]2CC[C@H]2CN2C[C@@]3(CCCc4cc(Cl)ccc43)COc3ccc1cc32 (single isomer, unassigned) [Example 343]		
		5.51 nM	O=C1NS(=O)(=O)[C@@H]2CCC[C@H]2C/C=C/[C@H](O)[C@@H]2CC[C@H]2CN2C[C@@]3(CCCc4cc(Cl)ccc43)COc3ccc1cc32 (single isomer, unassigned) [Example 326]	20000 nM	
	1110 nM	0.0929 nM	C[C@@H]1[C@@H](C)C/C=C/[C@H](OCC(=O)O)[C@@H]2CC[C@H]2CN2C[C@@]3(CCCc4cc(Cl)ccc43)COc3ccc(cc32)C(=O)NS1(=O)=O [Example 292, (((1S,3′R,6′R,7′S,8′E,11′S,12′R)-6-chloro-11′,12′-dimethyl-13′,13′-dioxido-15′-oxo-3,4-dihydro-2H-spiro[naphthalene-1,22′-[20]oxa[13]thia[1,14]diazatetracyclo[14.7.2.0^3,6.0^19,24]pentacosa [8,16,18,24]tetraen]-7′-yl)oxy)acetic acid]		
0.998 nM	362 nM		COCCCO[C@H]1/C=C/C[C@H](C)[C@@H](C)S(=O)(=O)NC(=O)c2ccc3c(c2)N(C[C@@H]2CC[C@H]21)C[C@@]1(CCCc2cc(Cl)ccc21)CO3 [Example 512, (1S,3′R,6′R,7′S,8′E,11′S,12′R)-6-chloro-7′-(3-methoxypropoxy)-11′,12′-dimethyl-3,4-dihydro-2H,15′H-spiro[naphthalene-1,22′-[20]oxa[13]thia[1,14]diazatetracyclo[14.7.2.0^3,6.0^19,24]pentacosa [8,16,18,24]tetraen]-15′-one 13′,13′-dioxide]		
		0.183 nM	C[C@@H]1[C@@H](C)S(=O)(=O)NC(=O)c2ccc3c(c2)N(C[C@@H]2CC[C@H]2[C@@H](O)/C=C/[C@@H]1C)C[C@@]1(CCCc2cc(Cl)ccc21)CO3 (single isomer, unassigned) [Example 1041]		IC50 [2, 6]: 77.2 nM
		1.79 nM	COC[C@H]1[C@@H](C)C/C=C/[C@H](OC)[C@@H]2CC[C@H]2CN2C[C@@]3(CCCc4cc(Cl)ccc43)COc3ccc(cc32)C(=O)NS1(=O)=O (single isomer, unassigned) [Example 461]	775 nM	
		0.299 nM	COCCO[C@H]1/C=C/[C@H](C)[C@H](C)[C@@H](C)S(=O)(=O)NC(=O)c2ccc3c(c2)N(C[C@@H]2CC[C@H]21)C[C@@]1(CCCc2cc(Cl)ccc21)CO3 [Example 1048, (1S,3′R,6′R,7′S,8′E,10′S,11′S,12′R)-6-chloro-7′-(2-methoxyethoxy)-10′,11′,12′-trimethyl-3,4-dihydro-2H,15′H-spiro[naphthalene-1,22′-[20]oxa[13]thia[1,14]diazatetracyclo[14.7.2.0^3,6.0^19,24]pentacosa [8,16,18,24]tetraen]-15′-one 13′,13′-dioxide]		IC50 [2, 6]: 90.8 nM
0.279 nM	142 nM		C[C@@H]1[C@@H](C)C/C=C/[C@H](OCCN2C[C@@H]3C[C@H]2CO3)[C@@H]2CC[C@H]2CN2C[C@@]3(CCCc4cc(Cl)ccc43)COc3ccc(cc32)C(=O)NS1(=O)=O [Example 520, (1S,3′R,6′R,7′S,8′E,11′S,12′R)-6-chloro-11,12′-dimethyl-7′-(2-((1S,4S)-2-oxa-5-azabicyclo[2.2.1]hept-5-yl)ethoxy)-3,4-dihydro-2H,15′H-spiro[naphthalene-1,22′-[20]oxa[13]thia[1,14]diazatetracyclo[14.7.2.0^3,6.0^19,24]pentacosa [8,16,18,24]tetraen]-15′-one 13′,13′-dioxide 2,2,2-trifluoroacetic Acid]		

Compound	IC50 [1, 3]	IC50 [2, 4]	IC50 [1, 5]	IC50 ([2]; 16 h)	further results
CN(C)S(=O)(=O)N1CCN(C(=O)C[C@@H]2CC/C=C/[C@H](O)[C@@H]3CC[C@H]3CN3C[C@@]4(CCCc5cc(Cl)ccc54)COc4ccc(cc43)C(=O)NS2(=O)=O)CC1 (single isomer, unassigned) [Example 631]	0.298 nM			2530 nM	
CO[C@H]1/C=C/CC[C@@H](C[C@@H](C)O)S(=O)(=O)NC(=O)c2ccc3c(c2)N(C[C@@H]2CC[C@H]21)C[C@@]1(CCCc2cc(Cl)ccc21)CO3 (single isomer, unassigned) [Example 548]	0.275 nM			478 nM	
CNC(=O)[C@@H](OC)[C@@H]1/C=C/[C@@H]2CC[C@H]2CN2C[C@@]3(CCCc4cc(Cl)ccc43)COc3ccc(cc32)C(=O)NS(=O)(=O)[C@H](C)[C@@H](C)C1.CNC(=O)[C@H](OC)[C@@H]1/C=C/[C@@H]2CC[C@H]2CN2C[C@@]3(CCCc4cc(Cl)ccc43)COc3ccc(cc32)C(=O)NS(=O)(=O)[C@H](C)[C@@H](C)C1 (mixture of isomers) [Example 362]			0.639 nM	476 nM	
O=C1NS(=O)(=O)[C@H](c2ccccn2)CC/C=C/[C@H](O)[C@@H]2CC[C@H]2CN2C[C@@]3(CCCc4cc(Cl)ccc43)COc3ccc1cc32 (single isomer, unassigned) [Example 693]	0.235 nM			742 nM	
CN(C)C(=O)CC[C@@H]1CC/C=C/[C@H](O)[C@@H]2CC[C@H]2CN2C[C@@]3(CCCc4cc(Cl)ccc43)COc3ccc(cc32)C(=O)NS1(=O)=O (single isomer, unassigned) [Example 618]	0.172 nM			607 nM	
CC[C@@H]1C[C@@H](C)/C=C/[C@H](O)[C@@H]2CC[C@H]2CN2C[C@@]3(CCCc4cc(Cl)ccc43)COc3ccc(cc32)C(=O)NS1(=O)=O (single isomer, unassigned) [Example 1023]			0.307 nM		IC50 ([2]; 16 h incubation): 501 nM
